From DBAASP
Converted amounts (≈) assume the structure as drawn. One block for each compound: values may come before it.

Tests used:
Assay in all cases: ≥ marks a high value that may be exact or a test limit, other limits are often not marked, values filed in µg/mL are converted to µM
[1] = system: Staphylococcus aureus KCTC 1621
[2] = system: Saccharomyces cerevisiae KCTC 7296
[3] = system: Proteus vulgaris KCTC 2433
[4] = system: Salmonella typhimurium KCTC 1926
[5] = system: Trichosporon beigelii KCTC 7707
[6] = system: Candida albicans TIMM 1768
[7] = system: Bacillus subtilis KCTC 1918
[8] = system: Penicillium digitatum PHI-26
[9] = system: Fusarium oxysporum CECT 2866
Botrytis cinerea #8 = system: Botrytis cinerea #8
[10] = system: Penicillium expansum PHI-65
Pyricularia grisea PR-9 = system: Pyricularia grisea PR-9
Penicillium sp. PHI-8 = system: Penicillium sp. PHI-8
[11] = system: Penicillium italicum PHI-1
[12] = system: Saccharomyces cerevisiae FY1679
[13] = system: Bacillus subtilis CECT 498
[14] = system: Aspergillus nidulans biA1
[15] = system: Escherichia coli DH5alpha
Alternaria sp. PHI-44 = system: Alternaria sp. PHI-44
[16] = system: Candida albicans ATCC 10231
Staphylococcus capitis 1 = system: Staphylococcus capitis 1
[17] = system: Staphylococcus aureus Cowan 1
[18] = system: Yersinia pseudotuberculosis YPIII
Bacillus megaterium Bm11 = system: Bacillus megaterium Bm11
[19] = system: Escherichia coli ATCC 25922
[20] = system: Pseudomonas aeruginosa ATCC 25010
[21] = system: Staphylococcus haemolyticus DSM 20263
[22] = system: Staphylococcus saprophyticus ATCC 19701
[23] = system: Salmonella enterica subsp. enterica serovar Typhimurium ATCC 14028
[24] = system: Klebsiella pneumoniae ATCC 13882
[25] = system: Enterobacter cloacae ATCC 13047
[26] = system: Staphylococcus aureus ATCC 29740
[27] = system: Salmonella enterica subsp. enterica serovar Enteritidis ATCC 13076
Escherichia coli = system: Escherichia coli
[28] = system: Bacillus cereus ATCC 14579
[29] = system: Listeria monocytogenes EGD
[30] = system: Salmonella enterica subsp. enterica serovar Enteritidis LA5
Bacillus subtilis = system: Bacillus subtilis
[31] = system: Staphylococcus aureus ATCC 6538
[32] = system: Pseudomonas aeruginosa ATCC 15422
[33] = system: Bacillus subtilis CCT 2576

- MIC [1]: 3.12 µM (≈ 6.73 µg/mL)
- MIC [2]: ≥ 50 µM
- MIC [3]: 12.5 µM (≈ 27 µg/mL)
- MIC [4]: 0.78 µM (≈ 1.68 µg/mL)
- MIC [5]: ≥ 50 µM
- MIC [6]: ≥ 50 µM
- MIC [7]: 3.12 µM (≈ 6.73 µg/mL)
SMILES: CC[C@H](C)[C@H](NC(=O)CNC(=O)[C@H](CC(C)C)NC(=O)[C@H](CCCN=C(N)N)NC(=O)[C@H](CCCCN)NC(=O)[C@H](Cc1ccccc1)NC(=O)[C@@H](NC(=O)[C@H](CCCCN)NC(=O)[C@H](CCCCN)NC(=O)[C@H](C)N)C(C)C)C(=O)NCC(=O)N[C@@H](C)C(=O)N[C@H](C(=O)N[C@@H](CC(C)C)C(=O)N[C@@H](Cc1c[nH]c2ccccc12)C(=O)N[C@H](C(=O)N[C@@H](CC(C)C)C(=O)N[C@H](C(=O)N[C@H](C(=O)NCC(=O)O)[C@@H](C)O)[C@@H](C)O)C(C)C)C(C)C [AKKVFKRLGIGAVLWVLTTG]

- MIC [8]: 4 µM (≈ 8.14 µg/mL)
- MIC [9]: 8 µM (≈ 16.3 µg/mL)
- MIC (Botrytis cinerea #8): 16 µM (≈ 32.6 µg/mL)
- MIC [10]: 8 µM (≈ 16.3 µg/mL)
- MIC (Pyricularia grisea PR-9): ≥ 32 µM
- MIC (Penicillium sp. PHI-8): 8 µM (≈ 16.3 µg/mL)
- MIC [11]: 4 µM (≈ 8.14 µg/mL)
- MIC [12]: ≥ 32 µM
- MIC [13]: 16 µM (≈ 32.6 µg/mL)
- MIC [14]: 4 µM (≈ 8.14 µg/mL)
- MIC [15]: 16 µM (≈ 32.6 µg/mL)
- MIC (Alternaria sp. PHI-44): 16 µM (≈ 32.6 µg/mL)
SMILES: CSCC[C@H](NC(=O)[C@H](CCCN=C(N)N)NC(=O)[C@H](Cc1c[nH]c2ccccc12)NC(=O)[C@H](CCC(N)=O)NC(=O)[C@H](Cc1c[nH]c2ccccc12)NC(=O)[C@H](CCCN=C(N)N)NC(=O)[C@H](CCCN=C(N)N)NC(=O)[C@H](CS)NC(=O)[C@H](CCCCN)NC(=O)[C@H](Cc1ccccc1)NC(C)=O)C(=O)N[C@@H](CCCCN)C(=O)N[C@@H](CCCCN)C(=O)N[C@@H](CC(C)C)C(=O)NCC(=O)N[C@@H](C)C(N)=O [FKCRRWQWRMKKLGA]

- MIC [16]: 40 µM (≈ 54.2 µg/mL)
- MIC (Staphylococcus capitis 1): ≥ 40 µM
- MIC [17]: ≥ 40 µM
- MIC [18]: ≥ 40 µM
- MIC (Bacillus megaterium Bm11): 20 µM (≈ 27.1 µg/mL)
- MIC [19]: > 40 µM
SMILES: CC[C@H](C)[C@H](NC(=O)CNC(=O)[C@H](CO)NC(=O)[C@H](CC(C)C)NC(=O)[C@@H](NC(=O)[C@H](CCCN=C(N)N)NC(=O)CNC(=O)[C@@H](NC(=O)[C@H](CC(C)C)NC(=O)[C@@H]1CCCN1C(=O)[C@H](CC(C)C)NC(=O)[C@@H](N)Cc1ccccc1)[C@@H](C)CC)C(C)C)C(=O)N[C@@H](C)C(N)=O [FLPLIGRVLSGIA]

- MIC [20]: 0.244 µM (≈ 1.1 µg/mL)
- MIC [22]: 0.147 µM (≈ 0.662 µg/mL)
- MIC [23]: 0.139 µM (≈ 0.624 µg/mL)
- MIC [24]: 0.0872 µM (≈ 0.393 µg/mL)
- MIC [25]: 0.177 µM (≈ 0.799 µg/mL)
- MIC [26]: 0.06 µM (≈ 0.27 µg/mL)
- MIC [27]: 0.163 µM (≈ 0.732 µg/mL)
- MIC (Escherichia coli): 0.256 µM (≈ 1.15 µg/mL)
- MIC [28]: 0.208 µM (≈ 0.938 µg/mL)
- MIC [29]: 0.236 µM (≈ 1.06 µg/mL)
- MIC [30]: 0.147 µM (≈ 0.662 µg/mL)
- MIC (Bacillus subtilis): 0.187 µM (≈ 0.844 µg/mL)
SMILES: CC[C@H](C)[C@H](NC(=O)[C@H](CCCN=C(N)N)NC(=O)[C@H](CCCCN)NC(=O)[C@@H]1CSSC[C@@H]2NC(=O)[C@H](CCCCN)NC(=O)[C@H](CC(C)C)NC(=O)[C@H](Cc3ccccc3)NC(=O)[C@H](C)NC(=O)[C@@H]3CSSC[C@H](NC(=O)[C@H](CCCCN)NC(=O)CNC(=O)[C@H](CO)NC(=O)[C@H]([C@@H](C)CC)NC(=O)[C@H](CC(C)C)NC(=O)[C@H]([C@@H](C)O)NC(=O)[C@H](CC(C)C)NC(=O)[C@H](CO)NC(=O)[C@@H]4CCCN4C2=O)C(=O)N[C@@H](CO)C(=O)N[C@@H](CCCN=C(N)N)C(=O)N[C@@H](Cc2ccccc2)C(=O)N[C@@H](Cc2ccc(O)cc2)C(=O)N[C@@H](CC(C)C)C(=O)N[C@@H](CSSC[C@H](NC(=O)[C@H](CC(=O)O)NC(=O)[C@H](CO)NC(=O)[C@H](CCCCN)NC(=O)[C@H](CCCN=C(N)N)NC(=O)CN)C(=O)N[C@@H](Cc2ccccc2)C(=O)N[C@@H](CCCN=C(N)N)C(=O)N[C@@H](CCCCN)C(=O)N[C@@H](CO)C(=O)NCC(=O)N[C@@H](Cc2ccccc2)C(=O)N3)C(=O)N1)C(=O)N[C@@H](Cc1c[nH]c2ccccc12)C(N)=O [GRKSDCFRKSGFCAFLKCPSLTLISGKCSRFYLCCKRIW]
- MIC [21]: 0.13 µM (≈ 0.584 µg/mL)

- MIC [31]: 7.8 µM (≈ 12.9 µg/mL)
- MIC [32]: 28.3 µM (≈ 46.8 µg/mL)
- MIC [19]: 5.8 µM (≈ 9.59 µg/mL)
- MIC [33]: 2.96 µM (≈ 4.9 µg/mL)
SMILES: CC[C@H](C)[C@H](N)C(=O)N[C@@H](CC(N)=O)C(=O)N[C@@H](Cc1c[nH]c2ccccc12)C(=O)N[C@@H](CCCCN)C(=O)N[C@@H](CCCCN)C(=O)N[C@@H](CC(C)C)C(=O)N[C@@H](CC(C)C)C(=O)N[C@@H](CC(=O)O)C(=O)N[C@@H](C)C(=O)N[C@@H](C)C(=O)N[C@@H](CCCCN)C(=O)N[C@@H](CCC(N)=O)C(=O)N[C@H](C(=O)N[C@@H](CC(C)C)C(N)=O)[C@@H](C)CC [INWKKLLDAAKQIL]
